The subject of one data set is Human Cancer Cell Lines. As to the kind of experiment: Human cancer cell growth inhibition, summary over the six cell line panel. It is filed as cell-based. To be noted: for biological activity (cancer cell growth inhibition): six cell line panel; for decrease in biological activity compared to both emetine and Compound 5: in four cell lines. The procedure:
(§1) Cancer Cell Line Procedures. Human cancer cell growth inhibition was measured using the standard sulforhodamine B assay of the U.S. National Cancer Institute, as previously described.^12 Briefly, cells in a 5% fetal bovine serum/RPMI1640 medium were inoculated in 96-well plates and incubated for 24 h. That was followed by serial dilutions of the compounds added. Forty-eight hours later the plates were fixed with trichloroacetic acid, stained with sulforhodamine B, and read with an automated microplate reader.
(§2) Next, growth inhibition of 50% (GI50 or the drug concentration causing a 50% reduction in the net protein increase) was calculated from optical density data with Immunosoft® software.

For another data set, the system named is SF-268 (CNS). The data set is described as follows: Human cancer cell growth inhibition, sulforhodamine B assay (NCI). It is filed as cell-based. The procedure: as §1
On the technique in general: The SRB assay estimates cell density from bound dye.

The next data set deals with NCI-H460 (lung). The data set is described as above. It is filed as cell-based. The procedure:
as §1, §2

The next data set deals with MCF-7 (breast). Described as above. It is filed as cell-based. The procedure:
as §1, §2

A further data set relates to KM20L2 (colon). The data set is described as above. It is filed as cell-based. The method, then:
as §1, §2

In another data set the test system is BXPC-3 (pancreas). Described as above. It is filed as cell-based. The procedure: as §1, §2
The test system of a further data set is DU-145 (prostate). The description is as above. It is filed as cell-based. The procedure:
as §1, §2

Data set [1] deals with NCI 60 Cancer cell screen. The settings on record: cited from earlier work.
Setting [2] is: NCI-H460, 48 h, sulforhodamine B.

Structures are written as SMILES. Structures can show the parent of a compound that is named as a salt. Where two headings read alike, the source gives them in different places.

In the case of `CC[C@H]1CN2CCc3cc(OC)c(OC)cc3C2C[C@@H]1C[C@@H]1c2cc(OC)c(OC)cc2CCN1C(=O)[C@H](C)[C@@H](OC)C1CCCN1C(=O)C[C@@H](OC)[C@H]([C@@H](C)CC)N(C)C(=O)[C@@H](NC(=O)[C@H](C(C)C)N(C)C)C(C)C` (stereo in doubt) [Compound 5, 2N′-(Dov-Val-Dil-Dap)-Emetine], the “cytotoxicity relative to emetine” value in the data set with Human Cancer Cell Lines (in four of the six cell lines) is on record as “comparable to that of emetine”. Besides, the GI50 (in general, the concentration giving 50% growth inhibition) with SF-268 (CNS) (Homo sapiens, SF-268) amounted to 30.2 nM; in the data set with SF-268 (CNS) (Homo sapiens, SF-268, 48 h) it was 0.032 µg/mL; in the data set on NCI-H460 (lung) (Homo sapiens, NCI-H460) it was 198 nM; in the data set with NCI-H460 (lung) (Homo sapiens, NCI-H460, 48 h), 0.21 µg/mL; in the data set with MCF-7 (breast) (Homo sapiens, MCF7), 35.8 nM; in the data set on MCF-7 (breast) (Homo sapiens, MCF7, 48 h), 0.038 µg/mL. Further, the GI50 in the data set on KM20L2 (colon) (Homo sapiens, KM-20L2) is 35.8 nM; in the data set on KM20L2 (colon) (Homo sapiens, KM-20L2, 48 h), 0.038 µg/mL; in the data set on BXPC-3 (pancreas) (Homo sapiens, BXPC-3), 386 nM; in the data set on BXPC-3 (pancreas) (Homo sapiens, BXPC-3, 48 h), 0.41 µg/mL; in the data set on DU-145 (prostate) (Homo sapiens, DU-145), 12.3 nM; in the data set on DU-145 (prostate) (Homo sapiens, DU-145, 48 h), 0.013 µg/mL. In addition, in the data set on BXPC-3 (pancreas) (BXPC-3 cell line), the “decrease in activity compared to emetine” value worked out at 10 fold.
In the case of `CC[C@H]1CN2CCc3cc(OC)c(OC)cc3[C@@H]2C[C@@H]1C[C@H]1NCCc2cc(OC)c(OC)cc21` [Compound 1, emetine dihydrochloride, reference compound], the GI50 in the data set on NCI-H460 (lung) (Homo sapiens, NCI-H460, 48 h, sulforhodamine B, read-out: GI50) was 0.022 µg/mL; in the data set with NCI-H460 (lung) (Homo sapiens, NCI-H460, value in brackets, read-out: GI50) it was 39.7 nM; in the data set with MCF-7 (breast) (Homo sapiens, MCF7, MCF-7, 48 h, sulforhodamine B, read-out: GI50) it was 0.03 µg/mL; with MCF-7 (breast) (Homo sapiens, MCF7, MCF-7, value in brackets, read-out: GI50) it was 54.2 nM; in the data set on KM20L2 (colon) (Homo sapiens, KM-20L2, KM20L2, 48 h, sulforhodamine B, read-out: GI50) it was 0.026 µg/mL; in the data set with KM20L2 (colon) (Homo sapiens, KM-20L2, KM20L2, value in brackets, read-out: GI50), 47 nM. The GI50 with BXPC-3 (pancreas) (Homo sapiens, BXPC-3, 48 h, sulforhodamine B, read-out: GI50) turned out to be 0.031 µg/mL; in the data set on BXPC-3 (pancreas) (Homo sapiens, BXPC-3, value in brackets, read-out: GI50), 56 nM; in the data set with DU-145 (prostate) (Homo sapiens, DU-145, 48 h, sulforhodamine B, read-out: GI50), 0.02 µg/mL; in the data set on DU-145 (prostate) (Homo sapiens, DU-145, value in brackets, read-out: GI50), 36.1 nM.
Turning to `CCC1CN2CCc3cc(OC)c(OC)cc3C2CC1CC1c2cc(OC)c(OC)cc2CCN1C(=O)C(C)C(OC)C1CCCN1.O=C(O)C(F)(F)F` (stereo not shown) [Compound 3, 2′-N-(Dap)-emetine TFA salt], in the data set on Human Cancer Cell Lines (in all six cell lines), the “decrease in activity compared to emetine” value turned out to be 100 fold. The GI50 in the data set with SF-268 (CNS) (SF-268, 48 h, sulforhodamine B) was 3.2 µg/mL; in the data set on SF-268 (CNS) (SF-268, value in brackets, read-out: GI50) it was 3650 nM; in the data set on NCI-H460 (lung) (setting [2]) it was 5.0 µg/mL; in the data set on NCI-H460 (lung) (NCI-H460, value in brackets, read-out: GI50), 5700 nM; with MCF-7 (breast) (MCF-7, 48 h, sulforhodamine B), 1.4 µg/mL; in the data set with MCF-7 (breast) (MCF-7, value in brackets, read-out: GI50), 1600 nM. Further, the GI50 worked out at 3.0 µg/mL in the data set on KM20L2 (colon) (KM20L2, 48 h, sulforhodamine B); 3420 nM in the data set with KM20L2 (colon) (KM20L2, value in brackets, read-out: GI50); 2.1 µg/mL with BXPC-3 (pancreas) (BXPC-3, 48 h, sulforhodamine B); 2390 nM in the data set with BXPC-3 (pancreas) (BXPC-3, value in brackets, read-out: GI50); 3.0 µg/mL in the data set with DU-145 (prostate) (DU-145, 48 h, sulforhodamine B); 3420 nM with DU-145 (prostate) (DU-145, value in brackets, read-out: GI50).
In the case of `CCC1CN2CCc3cc(OC)c(OC)cc3C2CC1CC1c2cc(OC)c(OC)cc2CCN1C(=O)CCNC(=O)OC(C)(C)C` (stereo not drawn) [Compound 6, 2′-(N-carboxy-β-alanyl)-tert-butyl emetine ester], the “biological activity (cancer cell growth inhibition)” value with Human Cancer Cell Lines was “inactive”. Moreover, the GI50 with SF-268 (CNS) (SF-268, 48 h, sulforhodamine B) was greater than 10 µg/mL; in the data set on NCI-H460 (lung) (setting [2]), greater than 10 µg/mL; in the data set on MCF-7 (breast) (MCF-7, 48 h, sulforhodamine B) it was 10 µg/mL; in the data set with KM20L2 (colon) (KM20L2, 48 h, sulforhodamine B), greater than 10 µg/mL; with BXPC-3 (pancreas) (BXPC-3, 48 h, sulforhodamine B), greater than 10 µg/mL; with DU-145 (prostate) (DU-145, 48 h, sulforhodamine B) it was greater than 10 µg/mL.
Consider `CC[C@H]1CN2CCc3cc(OC)c(OC)cc3C2C[C@@H]1C[C@@H]1c2cc(OC)c(OC)cc2CCN1C(=O)CCN` (stereo partly drawn) [Compound 7, 2′-N-(β-alanine)-emetine TFA salt], for which the “biological activity (cancer cell growth inhibition)” value in the data set with Human Cancer Cell Lines was “inactive”. Further, the GI50 with SF-268 (CNS) (Homo sapiens, SF-268, 48 h) is greater than 10 µg/mL; with NCI-H460 (lung) (Homo sapiens, NCI-H460, 48 h), greater than 10 µg/mL; in the data set with MCF-7 (breast) (Homo sapiens, MCF7, 48 h), greater than 10 µg/mL; in the data set with KM20L2 (colon) (Homo sapiens, KM-20L2, 48 h), greater than 10 µg/mL; with BXPC-3 (pancreas) (Homo sapiens, BXPC-3, 48 h) it was 10.3 µg/mL; in the data set with DU-145 (prostate) (Homo sapiens, DU-145, 48 h) it was 10.1 µg/mL.
With `CCC1CN2CCc3cc(OC)c(OC)cc3C2CC1CC1c2cc(OC)c(OC)cc2CCN1C(=O)CCNC(=O)C(C)C(OC)C1CCCN1C(=O)OC(C)(C)C` (stereo not shown) [Compound 8, 2′-N-(boc-dap-[…]-ala)-emetine], the “biological activity (cancer cell growth inhibition)” value in the data set with Human Cancer Cell Lines is “inactive”. In addition, the GI50 is greater than 10 µg/mL with SF-268 (CNS) (SF-268, 48 h, sulforhodamine B); greater than 10 µg/mL in the data set with NCI-H460 (lung) (setting [2]); greater than 10 µg/mL in the data set with MCF-7 (breast) (MCF-7, 48 h, sulforhodamine B); greater than 10 µg/mL in the data set on KM20L2 (colon) (KM20L2, 48 h, sulforhodamine B); greater than 10 µg/mL in the data set with BXPC-3 (pancreas) (BXPC-3, 48 h, sulforhodamine B); 10.0 µg/mL in the data set with DU-145 (prostate) (DU-145, 48 h, sulforhodamine B).
For the compound `CC[C@H]1CN2CCc3cc(OC)c(OC)cc3C2C[C@@H]1C[C@@H]1c2cc(OC)c(OC)cc2CCN1C(=O)CCNC(=O)[C@H](C)[C@@H](OC)C1CCCN1C(=O)C[C@@H](OC)C([C@@H](C)CC)N(C)C(=O)[C@@H](NC(=O)[C@H](C(C)C)N(C)C)C(C)C` (stereo partly drawn) [Compound 9, Dov-Val-Dil-Dap-β-Ala-Emetine], the “decrease in biological activity compared to both emetine and Compound 5” value in the data set with Human Cancer Cell Lines turned out to be 10 fold. For the same compound, the GI50 came out at 186 nM in the data set with SF-268 (CNS) (Homo sapiens, SF-268); 0.21 µg/mL in the data set on SF-268 (CNS) (Homo sapiens, SF-268, 48 h); 2830 nM in the data set on NCI-H460 (lung) (Homo sapiens, NCI-H460); 3.2 µg/mL in the data set on NCI-H460 (lung) (Homo sapiens, NCI-H460, 48 h); 159 nM in the data set on MCF-7 (breast) (Homo sapiens, MCF7); 0.18 µg/mL in the data set on MCF-7 (breast) (Homo sapiens, MCF7, 48 h). In addition, the GI50 with KM20L2 (colon) (Homo sapiens, KM-20L2) amounted to 194 nM; in the data set with KM20L2 (colon) (Homo sapiens, KM-20L2, 48 h), 0.22 µg/mL; with BXPC-3 (pancreas) (Homo sapiens, BXPC-3), 3800 nM; with BXPC-3 (pancreas) (Homo sapiens, BXPC-3, 48 h), 4.3 µg/mL; with DU-145 (prostate) (Homo sapiens, DU-145), 97.2 nM; in the data set with DU-145 (prostate) (Homo sapiens, DU-145, 48 h) it was 0.11 µg/mL.
For `CC[C@H]1CN2CCc3cc(OC)c(OC)cc3C2C[C@@H]1C[C@@H]1c2cc(OC)c(OC)cc2CCN1CCNC(=O)[C@H](C)[C@@H](OC)C1CCCN1C(=O)C[C@@H](OC)C([C@@H](C)CC)N(C)C(=O)[C@@H](NC(=O)[C@H](C(C)C)N(C)C)C(C)C` (stereo partly drawn) [Compound 10, 2′-N-(ethylamine-N-Dap-Dil-Val-Dov)-Emetine], the “decrease in biological activity compared to both emetine and Compound 5” value in the data set with Human Cancer Cell Lines turned out to be 10 fold. Also, the GI50 in the data set with SF-268 (CNS) (Homo sapiens, SF-268) came out at 272 nM; in the data set on SF-268 (CNS) (Homo sapiens, SF-268, 48 h) it was 0.3 µg/mL; with NCI-H460 (lung) (Homo sapiens, NCI-H460) it was 4530 nM; in the data set on NCI-H460 (lung) (Homo sapiens, NCI-H460, 48 h) it was 5 µg/mL; with MCF-7 (breast) (Homo sapiens, MCF7), 118 nM; in the data set on MCF-7 (breast) (Homo sapiens, MCF7, 48 h) it was 0.13 µg/mL. Moreover, the GI50 with KM20L2 (colon) (Homo sapiens, KM-20L2) was 362 nM; with KM20L2 (colon) (Homo sapiens, KM-20L2, 48 h) it was 0.4 µg/mL; with BXPC-3 (pancreas) (Homo sapiens, BXPC-3) it was 1900 nM; in the data set on BXPC-3 (pancreas) (Homo sapiens, BXPC-3, 48 h), 2.1 µg/mL; in the data set on DU-145 (prostate) (Homo sapiens, DU-145), 181 nM; with DU-145 (prostate) (Homo sapiens, DU-145, 48 h), 0.2 µg/mL.
As for `CC[C@H]1CN2CCc3cc(OC)c(OC)cc3[C@@H]2C[C@@H]1C[C@H]1NCCc2cc(OC)c(OC)cc21` [Emetine], the G150 in data set [1] was 27 nM.
